Values of other authors, collected in patent publication US20040259834A1, “Therapeutic composition containing at least diflomotecan and capecitabine” (priority 2003, published 2004).

Experiments:
various xenografts = various xenografts growing in nude mice
[1] = 7-membered β-hydroxylactone ring, more stable lactone form

CC[C@@]1(O)CC(=O)OCc2c1cc1n(c2=O)Cc2cc3cc(F)c(F)cc3nc2-1 [Diflomotecan]
activity against xenografts (various xenografts): excellent activity | plasma stability [1]: greater plasma stability
